Measured values: patent US10626148B2, “Glycopeptides conjugates and uses thereof” (priority 2015, dated 2020)
Like-named read-outs stand apart in the source and are kept apart here.

Legend:
[1] = system: Methicillin-resistant S. aureus (ATCC 33591); test: MIC, micro-dilution broth, MRSA; format: cell-based
Procedure: (§1) Test compounds were assayed in a micro-dilution broth format. Stock solutions were made by serially diluting the compounds using autoclaved millipore water or broth media. The antibacterial activity of the compounds was determined against gram positive bactreia like methicillin-resistant S. aureus (MRSA), vancomycin-intermediate-resistant S. aureus (VISA), vancomycin-sensitive E. faecium (VSE), vancomycin-resistant E. faecalis and vancomycin-resistant E. faecium (VRE). Antibacterial activity of dipicolyl-vancomycin conjugate conjugate (4) in combination with meropemem was determined against gram-negative bacteria such as K. pneumoniae ATCC BAA2146, clinical isolates K. pneumoniae R3949, K. pneumoniae R3934, E. coli R3336 and A. baumanii R676. Bacteria, to be tested, were grown for about 10 h in the suitable media, MRSA, VISA and gram negative bacteria were grown in Yeast-dextrose broth (about 1 g of beef extract, about 2 g of yeast extract, about 5 g of peptone and about 5 g of NaCl in about 1000 mL of sterile distilled water (pH-7)). For solid media, about 5% agar was used along with above mentioned composition. VSE and VRE were cultured in Brain Heart Infusion broth (Himedia). The bacterial samples were freeze dried and stored at −80° C. About 5 μL of these stocks were added to about 3 mL of the nutrient broth or Brain Heart Infusion broth and the culture was grown for about 6 h at about 37° C. prior to the experiments. This 6 h grown culture gives about 10^9 cfu/mL and this was determined by spread plating method. The 6 h grown culture was diluted to give effective cell concentration of about 10^5 cfu/mL which was then used for determining MIC. Compounds were serially diluted, in sterile water (2-fold dilution is employed) in a way that the working concentration was about 10 μM for MRSA, and VSE while for VRE, VISA and gram negative bacteria; it was about 100 μM. About 50 μL of these serial dilutions were added to the wells of 96 well plate followed by the addition of about 150 μL of bacterial solution. The plates were then incubated at about 37° C., 150 rpm in the incubator and O.D at 620 nm was recorded at an interval of about 24 h using TECAN (Infinite series, M200 pro) Plate Reader. Each concentration had triplicate values and the whole experiment was done at least twice and the MIC value was determined by taking the average of triplicate O.D. values for each concentration and plotting it against concentration. The data was then subjected to sigmoidal fitting.

[2] = system: Vancomycin intermediate resistant S. aureus; test: MIC, micro-dilution broth, VISA; format: cell-based
Procedure: as §1

[3] = system: Vancomycin-resistant E. faecium (VanA, ATCC 51559); test: MIC, micro-dilution broth, VREm; format: cell-based
Procedure: as §1

[4] = system: Vancomycin-sensitive E. faecium (ATCC 19634); test: MIC, micro-dilution broth, VSEm; format: cell-based
Procedure: as §1

[5] = system: Staphylococci (MRSA and VISA) and Enterococci (VREm and VREs); test: Antibacterial activity, gram positive panel; format: cell-based; settings: VSEm
Procedure: (§2) Test compounds were assayed in a micro-dilution broth format. Stock solutions were made by serially diluting the compounds using autoclaved millipore water or broth media. The antibacterial activity of the compounds was determined against gram positive bactreia like methicillin-resistant S. aureus (MRSA), vancomycin-intermediate-resistant S. aureus (VISA), vancomycin-sensitive E. faecium (VSE), vancomycin-resistant E. faecalis and vancomycin-resistant E. faecium (VRE). Antibacterial activity of dipicolyl-vancomycin conjugate conjugate (4) in combination with meropemem was determined against gram-negative bacteria such as K. pneumoniae ATCC BAA2146, clinical isolates K. pneumoniae R3949, K. pneumoniae R3934, E. coli R3336 and A. baumanii R676. […] This 6 h grown culture gives about 10^9 cfu/mL and this was determined by spread plating method. […] The plates were then incubated at about 37° C., 150 rpm in the incubator and O.D at 620 nm was recorded at an interval of about 24 h using TECAN (Infinite series, M200 pro) Plate Reader. Each concentration had triplicate values and the whole experiment was done at least twice and the MIC value was determined by taking the average of triplicate O.D. values for each concentration and plotting it against concentration. […]

[6] = system: meropenem-resistant NDM-1 bacteria; test: Combination with meropenem against NDM-1 gram negative bacteria; format: cell-based; settings: in combination with meropenem
Procedure: as §2, with “R676. Bacteria, to be tested, were grown for about 10 h in the suitable media, MRSA, VISA and gram negative bacteria were grown in Yeast-dextrose broth (about 1 g of beef extract, about 2 g of yeast extract, about 5 g of peptone and about 5 g of NaCl in about 1000 mL of sterile distilled water (pH-7)).” for “R676.”
(§3) Then, the antibacterial activities of Dipicolyl-vancomycin conjugate (4) is checked in combination with meropenem against New-Delhi β-lactamase producing gram negative bacteria such as K. pneumoniae BAA2146, clinical isolates K. pneumoniae R3949, K. pneumoniae R3934, E. coli R3336 and A. baumanii R676. […] Further we have also evaluated the antibacterial activity of dipicolyl-vancomycin conjugate (4) in presence of zinc sulphate, wherein it forms dipicolyl-vancomycin-zinc complex (5).

[7] = system: Vancomycin-resistant E. faecalis (VanA, ATCC 51575); test: MIC, micro-dilution broth, VREs; format: cell-based
Procedure: as §1

[8] = system: VREs ATCC 51575; format: in vivo, E. faecalis; settings: CD-1 mice, 12 mg/kg i.p. once daily, three doses
Procedure: Female CD-1 mice 6 to 8 weeks of age and weighing 20 to 25 g were used in this study. On day −7, all mice were injected intravenously (i.v.) with 0.2 mL of 0.2% λ-carrageenan to increase their susceptibility to bacterial renal infection. λ-Carrageenan increases mice susceptibility to renal infection following i.v. injection, possibly by forming a lattice structure in renal tissue and forming a support structure for bacterial attachment and growth. Bacterial strains that fail to cause renal infection in normal mice produce significant renal infections in λ-carrageenan-treated mice. On day 0, all mice were injected i.v. with 0.2 mL of the bacterial culture (VREs ATCC 51575, 10^8 CFU/mouse) through the tail vein. Four hours after the bacterial inoculation, mice were treated intraperitoneally (i.p.) with vancomycin, compound 4 and linezolid at 12 mg/kg of body weight or 0.2 mL of saline (0.9% NaCl) control (n=5). All the test compounds or saline were administered once daily for an additional two consecutive days for a total of three doses. All mice were sacrificed on day 3. Both kidneys from each mouse were removed aseptically and homogenized in 10 mL of saline. The dilutions of the homogenate were plated onto sheep blood agar plates, which were incubated overnight at about 37° C. The bacterial titer was expressed as log10 CFU/g of kidney weight.

[9] = system: NDM-1 expressing Klebsiella pneumoniae ATCC BAA2146; test: microbe, parasite or virus in culture; format: cell-based; settings: for MIC: Klebsiella pneumoniae
Procedure: as §1, §3

[10] = system: NDM-1 expressing Klebsiella pneumoniae R3949; test: microbe, parasite or virus in culture; format: cell-based; settings: for MIC: Klebsiella pneumoniae
Procedure: as §1, §3

[11] = system: NDM-1 expressing Escherichia coli R3336; test: microbe, parasite or virus in culture; format: cell-based; settings: for MIC: Escherichia coli
Procedure: as §1, §3

[12] = system: NDM-1 expressing Klebsiella pneumoniae R3934; test: microbe, parasite or virus in culture; format: cell-based; settings: for MIC: Klebsiella pneumoniae
Procedure: as §1, §3

[13] = system: meropenem-resistant NDM-1 K. pneumoniae R3934; test: Sepsis infection model in mice; format: in vivo; settings: CD-1 mice, i.p., 10 mg/kg alone, 1 h and 24 h post-infection
Procedure: Sepsis infection model: About six-week-old, female CD-1 mice (weight, ˜19-24 g) were used for the experiments. Mice were infected intraperitoneally (i.p.) with a dose of ˜10^6 CFU/mouse of meropenem-resistant NDM-1 K. pneumoniae R3934. Then, mice were treated twice at 1 h and 24 h post-infection with a specified i.p. dose of either saline, meropenem (10 mg/kg), compound 4 (10 mg/kg), or a combination of compound 4 (10 mg/kg) and meropenem (10 mg/kg). Here, colistin (5 mg/kg) was used as a positive control. Mice were euthanized after 48 h post-infection and then liver, spleen, kidney and lungs were collected to find out the bacterial density in these organs. Organs were placed into 10 ml sterile saline on ice, and then homogenized. The dilutions of the homogenate were plated onto agar plates, which were incubated for 24 h at 37° C. The bacterial titer was expressed as log10 CFU/g of organ weight.

[14] = target: T1, NDM-1 enzyme (Klebsiella pneumoniae, UniProt C7C422); test: NDM-1 enzyme inhibition, nitrocefin substrate; format: biochemical; settings: nitrocefin as substrate
T1 construct: made in house; host or cells: E. coli BL21 (DE3)
Procedure: The NDM-1 was produced by E. coli BL21 (DE3) carrying pET30a-NDM-1 in LB medium. Initially, the purified NDM-1 enzyme (5 nM, HEPES buffer, pH-7.4) was supplemented with 20 μM ZnSO4 for 30 min. Next, the enzyme was pre-incubated with the inhibitor (compound 4) for 20 min prior to the initiation of the assay by the addition of the substrate (Nitrocefin, 30 μM). Assays were read in 96-well microplate format at 490 nm (absorbance) using TECAN plate reader (Infinite Pro.) at 37° C. IC50s were deduced from a plot of percent loss of activity versus inhibitor concentration.

[15] = system: MRSA; test: Resistance development study, serial passages; format: cell-based, S. aureus; settings: passaged at MIC/2
Procedure: MIC values of the compound 4 and vancomycin were determined against MRSA as described above. For the next day MIC experiment, the bacterial dilution was made by using the bacteria from sub-MIC concentration of the compounds (at MIC/2). Then, the concentration of this bacteria was adjusted to ˜10^5 CFU/mL based on OD600 and subjected to next MIC assay. After a 24 h incubation period, again bacterial dilution was prepared by using the bacterial suspension from sub-MIC concentration of the compound (at MIC/2) and assayed for another MIC experiment. The process was repeated for 25 passages, and the fold increase in MIC was determined. […] Thus bacteria were unable in acquiring resistance to this compound and this emphasizes the longevity of such compounds in clinics.

[16] = read-out: MIC of Meropenem in absence of compound 4
[17] = read-out: MIC of Meropenem in absence of compound 5

T1 sequence (C7C422 29-270, looked up, species assumed): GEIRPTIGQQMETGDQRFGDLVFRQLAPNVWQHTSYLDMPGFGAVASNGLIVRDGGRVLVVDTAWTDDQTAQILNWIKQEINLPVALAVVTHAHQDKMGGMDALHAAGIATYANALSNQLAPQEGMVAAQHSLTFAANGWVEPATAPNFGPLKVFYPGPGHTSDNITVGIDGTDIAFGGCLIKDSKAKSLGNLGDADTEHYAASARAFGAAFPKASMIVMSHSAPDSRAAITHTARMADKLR

Molecule: NCCCCCCN(Cc1ccccn1)Cc1ccccn1 [Compound 3, dipicolyl-1,6-hexadiamine]
- MIC ([1]; MRSA): >100 µM
- MIC [2]: >100 µM
- MIC ([3]; VREm): >100 µM
- MIC ([4]; VSEm): >100 µM
- antibacterial activity against any of the bacteria tested [5]: did not show any activity
- resensitization of meropenem-resistant NDM-1 bacteria to meropenem (synergistic activity) [6]: did not show any appreciable synergistic activity
- MIC ([7]; VREs): >100 µM

Molecule: CC(=O)NC[C@H]1CN(c2ccc(N3CCOCC3)c(F)c2)C(=O)O1 [Linezolid, linezolid, reference compound]
- reduction of bacterial titer from infected kidneys in comparison to vancomycin [8]: reduced bacterial titer from the infected kidneys more effectively
- CFU reduction compared to vehicle treated control (saline) ([8]; kidneys): ~4 log10 CFU

Molecule: C[C@@H](O)[C@H]1C(=O)N2C(C(=O)O)=C(S[C@@H]3CN[C@H](C(=O)N(C)C)C3)[C@H](C)[C@H]12 [Meropenem, meropenem, reference compound]
- MIC ([9]; ATCCBAA2146, read-out: MIC of Meropenem in absence of compound 4): > 100 µg/mL
- MIC ([9]; ATCCBAA2146, read-out: MIC of Meropenem in absence of compound 5): > 100 µg/mL
- MIC [10, 16]: > 100 µg/mL
- MIC [10, 17]: > 100 µg/mL
- MIC [11, 16]: > 100 µg/mL
- MIC [11, 17]: > 100 µg/mL
- MIC [12, 16]: > 100 µg/mL
- MIC [12, 17]: > 100 µg/mL
- in-vivo antibacterial activity, bacterial titer in organs [13]: did not show any activity

Molecule: CN[C@H](CC(C)C)C(=O)N[C@H]1C(=O)N[C@@H](CC(N)=O)C(=O)N[C@H]2C(=O)N[C@H]3C(=O)N[C@H](C(=O)N[C@H](C(=O)O)c4cc(O)cc(O)c4-c4cc3ccc4O)[C@H](O)c3ccc(c(Cl)c3)Oc3cc2cc(c3O[C@H]2OC(CO)[C@H](O)C(O)C2O[C@H]2C[C@@](C)(N)[C@@H](O)C(C)O2)Oc2ccc(cc2Cl)[C@H]1O (stereo partly shown) [Vancomycin, reference compound]
- effect on the activity of NDM-1 [14]: no effect
- MIC ([1]; Staphylococcus aureus): 0.63 µM
- MIC ([2]; Staphylococcus aureus): 13 µM
- MIC ([3]; Enterococcus faecium, ATCC51559): 750 µM
- MIC ([4]; Enterococcus faecium, ATCC19634): 0.6 µM
- fold increase in MIC after 25 serial passages [15]: ~16 fold
- passages after which the MIC value started increasing [15]: 7 passages
- MIC ([7]; Enterococcus faecalis, ATCC51575): 250 µM

Molecule: Dipicolyl-Vancomycin-Zinc Complex [Compound 5]
- MIC ([1]; MRSA): 0.3 µM
- MIC [2]: 0.3 µM
- MIC ([3]; VREm): 0.6 µM
- fold more active than vancomycin ([3]; VREm (VRE), ratio of MIC values): about 1250 fold
- MIC ([4]; VSEm): 0.31 µM
- MIC of Meropenem in presence of compound 5 at 12 μM ([9]; Klebsiella pneumoniae ATCC BAA2146): >100 µg/mL
- MIC of Meropenem in presence of compound 5 at 12 μM ([10]; Klebsiella pneumoniae R3949): >100 µg/mL
- MIC of Meropenem in presence of compound 5 at 12 μM ([11]; Escherichia coli R3336): >100 µg/mL
- MIC of Meropenem in presence of compound 5 at 12 μM ([12]; Klebsiella pneumoniae R3934): >100 µg/mL
- resensitization of meropenem-resistant NDM-1 bacteria to meropenem (synergistic activity) [6]: did not restore the activity of meropenem
- MIC ([7]; VREs): 1.5 µM
